Reference: PubChem BioAssay (NCI)
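48-hour exposure; five concentrations; linearly interpolated endpoints. TGI: concentration producing complete growth inhibition.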

Tests used:
Assay in all cases: NCI tumour cell line growth inhibition, 48 h
COLO 205 colon = tested on: COLO 205 colon
HCT-116 colon = tested on: HCT-116 colon
HL-60(TB) leukemia = tested on: HL-60(TB) leukemia
HOP-62 NSCLC = tested on: HOP-62 NSCLC
K-562 leukemia = tested on: K-562 leukemia
LOX IMVI melanoma = tested on: LOX IMVI melanoma
MCF7 breast = tested on: MCF7 breast
SK-MEL-2 melanoma = tested on: SK-MEL-2 melanoma
SN12C renal = tested on: SN12C renal
SNB-19 CNS = tested on: SNB-19 CNS

| Structure (SMILES) | TGI (COLO 205 colon) [µM] | TGI (HCT-116 colon) [µM] | TGI (HL-60(TB) leukemia) [µM] | TGI (HOP-62 NSCLC) [µM] | TGI (K-562 leukemia) [µM] | TGI (LOX IMVI melanoma) [µM] | TGI (MCF7 breast) [µM] | TGI (SK-MEL-2 melanoma) [µM] | TGI (SN12C renal) [µM] | TGI (SNB-19 CNS) [µM] |
| --- | --- | --- | --- | --- | --- | --- | --- | --- | --- | --- |
| COc1cc(C(N)=O)cc(NC(=O)/C=C/c2ccccc2)c1OC | > 100 | > 100 | > 100 | > 100 | > 100 | > 100 | > 100 | > 100 | > 100 | > 100 |
| Cc1c(CCCl)c(N=[N+]=[N-])n2c(nc3ccccc32)c1C#N | 2.66 | 1.55 | 2.6 | 5.01 | 1.48 | 2.37 | 2.14 | 3.48 | 3.13 | 8.37 |
| CN(C)CCNC(=O)c1cccc2nc3cccc(F)c3nc12 | 1.89 | 4.56 | 6.39 | 8.55 | 12.3 | 2.24 | 6.56 | 4.86 | 5.48 | > 35 |
| COC(=O)NN=C(c1ccc(Cl)cc1)c1ccc(Cl)cc1 | > 100 | > 100 | > 100 | – | > 100 | > 100 | > 100 | > 100 | > 100 | > 100 |
| CC(C)(C)OC(=O)NC(Cc1cnc[nH]1)C(=O)N1CCCC1C(N)=O (stereo not drawn) | > 100 | > 100 | > 100 | > 100 | > 100 | > 100 | > 100 | > 100 | > 100 | > 100 |
| N#CC1CCN2N=C(c3ccccc3)SC12c1ccccc1 (stereo not drawn) | > 100 | > 100 | > 100 | > 100 | > 100 | > 100 | > 100 | > 100 | > 100 | > 100 |
| O=C1CC(=O)c2c(Cl)sc(Cl)c21 | > 100 | > 100 | 85.6 | > 100 | > 100 | > 100 | > 100 | > 100 | > 100 | – |
| Cc1cc2c(cc1C)[n+](=O)c(C(=O)N1CCN(c3ccc([N+](=O)[O-])cc3)CC1)c(C)n2[O-] | > 100 | > 100 | > 100 | 29.4 | > 100 | > 100 | > 100 | > 100 | > 100 | > 100 |
| CN(C)CCCNc1nnc(NCCCN(C)C)c2c(=O)c3sccc3[nH]c12 | > 20.2 | > 33.8 | > 28.2 | > 100 | > 34.7 | 54.4 | > 100 | 37.8 | 50.9 | > 100 |
| COc1cc2c(cc1OC)C1(c3ccccc3)CN(C2)Cc2cc(OC)c(OC)cc21 | 34.2 | > 100 | 63.8 | > 100 | > 100 | > 100 | > 100 | 70.1 | > 100 | > 100 |
| Cc1ccc2c(=O)c(-c3nnc(N)s3)c[nH]c2n1 | > 100 | > 100 | > 100 | > 100 | > 100 | > 100 | > 100 | > 100 | > 100 | > 100 |
| Cc1ccc2c(c1)[nH]c(=S)n2C=C1C(=O)CC(C)(C)CC1=O | > 100 | > 100 | > 100 | > 100 | – | > 100 | > 100 | > 100 | > 100 | > 100 |
| Cc1ccc(S(=O)(=O)Oc2cc(S(=O)(=O)O)cc3cc(S(=O)(=O)O)cc(N)c23)cc1 | > 100 | > 100 | > 100 | > 100 | > 100 | > 100 | > 100 | > 100 | > 100 | > 100 |
| CC1C/C(=N\N(C)C)C(C#N)(C#N)C1(C#N)C#N (stereo not drawn) | 5.67 | 38.4 | > 100 | 39.4 | > 100 | 19.7 | 83.8 | 48.8 | 34.4 | > 70.6 |
| N#CC(C#N)=C(N)/C(C#N)=C/c1cc(O)c(O)c(Br)c1 | > 100 | > 100 | > 92.3 | > 100 | > 100 | > 100 | > 100 | > 100 | > 100 | > 100 |
| COC(=O)C(Cc1ccccc1I)C1=CCC2(CC1)OCCO2 (stereo not drawn) | 63 | – | 41.5 | > 100 | > 100 | 58.7 | 92.7 | 75.4 | – | 96.8 |
| O=C(OCC12CC3CC(CC(C3)C1)C2)c1ccc(NCc2cc(O)ccc2O)cc1 | 2.8 | 10.3 | 15 | 16 | > 49.2 | 4.72 | 36.8 | 8.12 | 18.7 | 11 |
| CCOC(=O)c1cc(C2CCN(Cc3ccccc3)C2=O)c(C(=O)C(=[N+]=[N-])C(C)=O)[nH]1 (stereo not drawn) | > 100 | > 100 | > 100 | > 100 | > 100 | > 100 | > 100 | > 100 | > 100 | > 100 |
| CC(/C=C/c1ccc([N+](=O)[O-])o1)=N/N1CC(CN2CCOCC2)OC1=O (stereo not drawn) | 29.8 | 56.4 | 55.7 | > 100 | 61.1 | > 100 | 27 | 34.6 | > 100 | > 100 |
| OCC1OC(n2nc(-c3ccccc3)nc2-c2cnccn2)C(O)C1O (stereo not drawn) | > 100 | > 100 | > 100 | > 100 | > 100 | > 100 | > 100 | – | > 100 | > 100 |
| C#CCOC(=O)C(N)CSSCC(N)C(=O)O (stereo not drawn) | > 100 | > 100 | > 100 | > 100 | – | > 100 | > 100 | > 100 | > 100 | > 100 |
| CC(=O)NCCc1c[nH]c2ccc(Cl)cc12 | > 100 | > 100 | > 100 | > 100 | > 100 | > 100 | > 100 | > 100 | > 100 | > 100 |
